The values below come from patent US6995159B2, “5-HT receptor ligands and uses thereof” (Pfizer Inc., priority 2001, dated 2006).

One assay addresses T1, human 5HT2c receptor (Homo sapiens, UniProt P28335).
T1 construct: expressed in transfected cells; host or cells: Swiss 3T3 mouse cells
T1 sequence (P28335 33-458): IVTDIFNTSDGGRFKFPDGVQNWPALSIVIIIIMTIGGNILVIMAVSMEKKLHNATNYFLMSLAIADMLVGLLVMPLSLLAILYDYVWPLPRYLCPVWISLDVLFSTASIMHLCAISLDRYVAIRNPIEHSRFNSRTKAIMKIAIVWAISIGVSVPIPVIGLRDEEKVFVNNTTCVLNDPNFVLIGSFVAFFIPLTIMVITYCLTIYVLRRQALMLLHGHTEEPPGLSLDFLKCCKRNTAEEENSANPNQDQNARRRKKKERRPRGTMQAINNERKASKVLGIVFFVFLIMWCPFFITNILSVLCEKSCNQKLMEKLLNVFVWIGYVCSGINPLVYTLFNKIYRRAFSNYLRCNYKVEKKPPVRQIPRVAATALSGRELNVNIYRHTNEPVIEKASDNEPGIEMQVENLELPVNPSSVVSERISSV
As to the kind of experiment: 5HT2c binding procedure (competition binding against 3H-5HT). Particulars: Swiss 3T3 mouse cells transfected with human 5HT2c receptor. On the procedure: Affinity of compounds at the serotonin 5HT2c binding site is determined by competition binding in Swiss 3T3 mouse cells (available from the American Type Culture Collection (ATCC), Manassas, Va.) transfected with the human 5HT2c receptor against 3H-5HT. The method is adapted from Roth et al., J. of Pharm. And Exp. Therap., 260(3), 1362–1365 (1992). Cells are grown in DMEM high glucose medium, harvested, homogenized, centrifuged, and resuspended in 50 mM Tris-HCL. They are incubated at 37° C. for 15 minutes, centrifuged, and then resuspended into assay buffer (50 mM Tris-HCl, 4 mM CaCl2, 0.1% ascorbic acid, and 100 μM pargyline at pH 7.7) at 100 volumes per gram. Assay tubes contain 25 μL of 10 nM ^3H-5HT (1 nM final conc.), and 25 μl of vehicle (assay buffer), blank (10 μM mianserin), or test compound (10X final volume). 200 μl of tissue homogenate is added to each tube, vortexed, and incubated for 30 minutes at 37° C. Samples are then rapidly filtered under vacuum with a Skatron™ cell harvester (available from Molecular Devices Corporation, Sunnyvale, Calif.) using GF/B filters presoaked in 0.5% polyethyleneimine (PEI), and washed with 2×5 mL cold 50 mM Tris-HCl. Filter mats are removed and counted in a Wallac Betaplate counter (available from PerkinElmer Life Sciences, Gaithersburg, Md.). Percent inhibition of specific binding by test compounds is used to calculate the Ki, or extrapolate concentration of test compound necessary to inhibit one-half of the total specific binding for each compound.

For another assay, the target named is T2, rat 5HT2A receptor (Rattus norvegicus, UniProt P14842).
T2 construct: expressed in transfected cells; host or cells: NIH 3T3 mouse cells
T2 sequence (P14842 whole entry): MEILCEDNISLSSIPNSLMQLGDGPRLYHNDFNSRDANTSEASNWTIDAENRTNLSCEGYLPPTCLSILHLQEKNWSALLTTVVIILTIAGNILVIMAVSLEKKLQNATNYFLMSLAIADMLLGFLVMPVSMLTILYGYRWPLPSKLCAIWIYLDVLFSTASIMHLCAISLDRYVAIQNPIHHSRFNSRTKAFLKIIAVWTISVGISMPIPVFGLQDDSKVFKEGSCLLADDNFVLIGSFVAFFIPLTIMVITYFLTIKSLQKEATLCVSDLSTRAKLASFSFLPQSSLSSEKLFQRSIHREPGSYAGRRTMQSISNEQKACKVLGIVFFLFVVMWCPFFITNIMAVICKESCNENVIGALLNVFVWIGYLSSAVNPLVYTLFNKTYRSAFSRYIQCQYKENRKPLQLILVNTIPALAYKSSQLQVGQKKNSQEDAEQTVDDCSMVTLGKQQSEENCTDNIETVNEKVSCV
The assay is described as follows: 5HT2A binding procedure (competition binding using 125I-DOI). To be noted: NIH 3T3 mouse cells transfected with rat 5HT2A receptor. On the procedure:
Affinity of compounds at the serotonin 5HT2A binding site is determined by competition binding in NIH 3T3 mouse cells transfected with the rat 5HT2A receptor using 1251-DOI. The method was adapted from Leonhardt et al., Molecular Pharmacology, 42, 328–335 (1992). Frozen cell paste is homgenized in 50 mM tris-HCl buffer pH 7.4 containing 2 mM MgCl2 using a Polytron and centrifuged at 45000×g for ten minutes. The resulting pellet is resuspended in fresh ice-cold 50 mM tris-HCl buffer pH 7.4 containing 2 mM MgCl2 using a Polytron™ and centrifuged again at 45000×g for ten minutes. The final pellet is resuspended in 50 mM tris-HCl buffer pH 7.4 containing 2 mM MgCl2 at a concentration of 5 mg/mL. Wells in a 96 well plate contain 25 μL of 0.7 nM 1251-DOI (70 pM final conc.), and 25 μL of vehicle (assay buffer), blank (10 μM cinanserin), or test compound (10× final volume). […] Filter mats are removed, dried and counted in a Wallac Betaplate counter. Concentration-response curves of the % inhibition of specific binding and log concentration by test compounds was used to determine the IC50 for each compound and the Ki value calculated based on the Cheng-Prusof equation (Ki=IC50/(1+(L/Kd)), where L is the concentration of the radioligand used in the binding assay and the Kd is based on previous saturation studies with the radioligand.

For a further assay, the system named is 5-HT2c receptor. As to the kind of experiment: Functional assay (FLIPR calcium, Fluo 4-AM) in 5-HT2c expressed cells. The class given is cell-based. To be noted: at 10 μM; 5-HT2c expressed NIH 3T3 cells. On the procedure: (§1) Swiss 3T3 cells expressing r-5HT2C, r-5HT2A, h-5HT2C or h-5HT2A receptors are seeded at a density of 12,500 cells/well in 384 well black/clear collagen-coated plates. Forty eight (48) hrs later the cells are loaded with the calcium sensitive dye, Fluo 4-AM (4 μM dissolved in DMSO containing pluronic acid) in serum free DMEM in the presence of probenicid (2.5 mM) for 75 minutes at 37° C. in a CO2 incubator. Unincorporated dye is removed by washing 3 times with a HEPES-buffered saline containing probenicid (2.5 mM) using a Skatron™ cell washer (final volume 30 μL).
(§2) Plates are added to a fluorometric imaging plate reader (FLIPR 384 available from Molecular Devices Corporation) individually and fluorescence measurements are taken every 2 seconds over an 85 seconds period. Test compound additions are made simultaneously to all 384 wells after 20 seconds of baseline recording. Concentration-response curves are generated using Graphpad Prism™ (available from GraphPad Software, Inc., San Diego, Calif.) and agonist efficacies are generated as % of the response to 10 μM 5-HT (considered as 100%). Estimation of antagonist potencies (functional Kis) are generated by measuring inhibition of the test compound response to 5-HT (10 nM for 5-HT2C and 50 nM for 5-HT2A) and applying the Cheng Prusoff equation.
The functional data for the compounds listed in the Examples above utilizing the 5-HT2c expressed NIH 3T3 cells is summarized below.

A further assay deals with 5-HT2a receptor. As to the kind of experiment: Functional assay (FLIPR calcium, Fluo 4-AM) in 5-HT2a expressed cells. In kind it is cell-based. To be noted: 5-HT2a expressed NIH 3T3 cells. On the procedure:
as §1, §2
The functional data for the compounds listed in the Examples above utilizing the 5-HT2a expressed NIH 3T3 cells is summarized below.

The Ki is the equilibrium dissociation constant of an inhibitor or competing ligand from its target. Turning to `C[C@@H]1CN(c2ccnc(OCc3cccc(Cl)c3)n2)C[C@H](C)N1` [Example 1-NN, 2-(3-Chloro-benzyloxy)-4-[(3R,5S)-dimethyl-piperazin-1-yl]-pyrimidine], on human 5HT2c receptor, the Ki was > 500 nM. At rat 5HT2A receptor, the 5HT2a binding activity result is recorded as “no binding activity”. Moreover, the 5-HT2c functional activity entry in the assay with 5-HT2c receptor is reported as “no 5-HT2c functional activity”. The 5-HT2a functional activity result with 5-HT2a receptor (at 10 μM) is on record as “no functional activity”.
`Cl.c1ccc(COc2nccc(N3CCNCC3)n2)nc1` [Example 5-B, 4-Piperazin-1-yl-2-(pyridin-2-ylmethoxy)-pyrimidine, hydrochloride]: the Ki at human 5HT2c receptor is > 500 nM. In addition, in the assay with 5-HT2a receptor, the “functional mode at 5-HT2a (partial agonist / full antagonist)” value was “full antagonists”.
Take `Cc1cccc(COc2nccc(N3CCNCC3)n2)n1.Cl` [Example 5-C, 2-(6-Methyl-pyridin-2-ylmethoxy)-4-piperazin-1-yl-pyrimidine, hydrochloride]: the Ki on human 5HT2c receptor was > 500 nM. The “functional mode at 5-HT2a (partial agonist / full antagonist)” value in the assay on 5-HT2a receptor was “full antagonists”.
